{
  "source": "paper PMC9609178",
  "about": "“Tumor-Specific Monomethyl Auristatin E (MMAE) Prodrug Nanoparticles for Safe and Effective Chemotherapy” (Pharmaceutics, 2022)",
  "key": {"[1]": {"system": "4T1 cells", "assay": "Tubulin formation in 4T1 cells (anti-tubulin antibody staining)", "format": "cell-based, murine", "settings": "after 24 h of treatment; Cy5.5 anti-tubulin antibody", "description": "Then, cells were fixed with 4% paraformaldehyde fixative for 25 min, and stained with DAPI solution (Invitrogen, Carlsbad, CA, USA) for 15 min in the dark. Finally, the 4T1 cells were observed using a confocal laser scanning microscope (CLSM) equipped with 405 diode (405 nm) and HeNe-Red (633 nm) lasers (Leica, Wetzlar, Germany)."}, "[2]": {"assay": "Toxicity study in 4T1 tumor-bearing mice (histology, hematology, body weight, survival)", "format": "in vivo", "description": "(§1) The antitumor efficacy was evaluated in the breast tumor models. The breast tumor models were prepared via subcutaneous injection of 1 × 10^6 4T1 cells. […] The mice were treated once every three days, and tumor volumes were calculated as the smallest diameter^2 × largest diameter × 0.53. The mice with a tumor volume of 2000 mm^3 or larger were counted as dead. […] The major organs were collected from mice on day 5 after treatments, and structural abnormality in the organ tissues was assessed by staining with H&E."}, "[3]": {"system": "4T1 cells", "assay": "Cytotoxicity, CCK-8 assay, 4T1 cells", "format": "cell-based, murine", "settings": "24 h incubation; CCK-8, 450 nm; read-out: IC50, cell viability, 4T1 cells", "description": "(§2) First, […] 4T1 or H9C2 cells were seeded in the 96-well cell culture plates. […] Finally, the cell viability of each cell was measured using a microplate reader with 450 nm of wavelength (VERSAmaxTM; Molecular Devices Corp., San Jose, CA, USA)."}, "[4]": {"settings": "cited from earlier work", "excerpt": "Monomethyl auristatin E (MMAE), a synthetic analog of the natural product dolastatin 10, is a potent antimitotic agent that inhibits tubulin polymerization."}, "[5]": {"system": "H9C2 cells", "assay": "Cytotoxicity, CCK-8 assay, H9C2 cells", "format": "cell-based, rat", "settings": "24 h incubation; CCK-8, 450 nm; read-out: IC50, cell viability, H9C2 cells", "description": "as §2"}, "[6]": {"system": "4T1 tumor", "assay": "Antitumor efficacy in 4T1 breast tumor models", "format": "in vivo, mice", "description": "as §1"}},
  "note": "Square brackets hold non-standard residues; d marks the D form. Peptide text beside a SMILES is read from it. * marks the point of attachment. Dolaproine = CO[C@@H]([C@@H]1CCCN1)[C@@H](C)C(=O)O; Dil = CC[C@H](C)[C@H](NC)[C@@H](CC(=O)O)OC; X1 = C[C@@H](N*)[C@@H](O)c1ccccc1; NMeV = CN[C@H](C(=O)O)C(C)C",
  "data": [
    {"smiles": "CC[C@H](C)[C@@H]([C@@H](CC(=O)N1CCC[C@H]1[C@H](OC)[C@@H](C)C(=O)N[C@H](C)[C@@H](O)c1ccccc1)OC)N(C)C(=O)[C@@H](NC(=O)[C@@H](NC)C(C)C)C(C)C", "note": "[MMAE, Monomethyl auristatin E] (H-[NMeV]V[Dil][Dolaproine]-X1)", "values": [
      {"measurement": "Tubulin formation in 4T1 cells compared to naive cells", "setting": "[1]", "value": "significantly inhibited"},
      {"measurement": "Body weight", "setting": "[2]; 0.2 mg/kg MMAE equivalent once every three days", "value": "significant body weight loss"},
      {"measurement": "Mice survival", "setting": "[2]; 0.2 mg/kg MMAE equivalent once every three days, 15 days", "value": "all the mice were dead within five days"},
      {"measurement": "Hematological parameters (ALB, AST, ALT)", "setting": "[2]; 0.2 mg/kg MMAE equivalent, after five days of treatment", "value": "significant changes"},
      {"measurement": "Structural abnormalities in normal organs (liver, lung, spleen, kidney and heart), H&E", "setting": "[2]; 0.2 mg/kg once every three days, after five days of treatment", "value": "severe systemic toxicity"},
      {"measurement": "IC50", "setting": "[3]", "value": 0.92, "unit": "nM"},
      {"measurement": "Antitumor efficacy, times more potent than doxorubicin", "setting": "[4]", "value": "100–1000 times"},
      {"measurement": "IC50", "setting": "[5]", "value": 1.17, "unit": "nM"},
      {"measurement": "Tumor growth during monitoring for 15 days", "setting": "[6]; 0.1 mg/kg MMAE once every three days, 15 days", "value": "rapid tumor growth compared to FRRG-MMAE-treated mice"},
      {"measurement": "Tumor volume on day 5 after treatment", "setting": "[6]; 0.2 mg/kg based on MMAE contents, once every three days, day 5", "value": "154.73 ± 31.63", "unit": "mm^3"}
    ]}
  ]
}
